Source: patent US9353088B2, “Crystalline pharmaceutical and methods of preparation and use thereof” (SARcode Bioscience Inc., priority 2009, dated 2016)

Test: Dynamic Vapor Sorption (DVS) analysis
Type: physicochemical
Method: Dynamic Vapor Sorption (DVS) analysis was performed with a Surface Measurement Systems DVS-1 water vapor sorption analyzer. The experiments were run by placing the sample on a quartz holder on top of a microbalance, and allowing the sample to equilibrate at 50% relative humidity (r.h.) before starting the pre-defined humidity program. The program proceeded in the following steps: 1 hour at 50% r.h.; 50% to 0% r.h. at a rate of 5% r.h. change per hour; 5 hours at 0% r.h; 0% r.h to […]. at 5% r.h change per hour; 5 hours at 95% r.h.; 95% r.h. to 50% r.h. at a rate of 5% r.h. change per hour, and followed by one hour at 50% r.h.

Compound	water content by DVS (after mass loss at lowest relative humidity of 0.4%)	water content by DVS (at the start of the experiment)	water content by DVS (mass gain at 95% relative humidity)	hygroscopicity (DVS, 50 hours, 5 hours at 95% relative humidity)
CS(=O)(=O)c1cccc(C[C@H](NC(=O)c2c(Cl)cc3c(c2Cl)CCN(C(=O)c2ccc4ccoc4c2)C3)C(=O)O)c1 [Crystalline Form A]	0.5 mole water per mole free acid	about 0.9 mole water per mole free acid	1.1 mole water per mole free acid	
CS(=O)(=O)c1cccc(C[C@H](NC(=O)c2c(Cl)cc3c(c2Cl)CCN(C(=O)c2ccc4ccoc4c2)C3)C(=O)O)c1 [Crystalline Form B]				does not appear to be hygroscopic
